From PMC8621172, “Manipulating Estrogenic/Anti-Estrogenic Activity of Triphenylethylenes towards Development of Novel Anti-Neoplastic SERMs” (International Journal of Molecular Sciences, 2021)

How the values were obtained:
MCF-7 cells = assay: NCI growth inhibition on MCF-7 (single dose and five-dose, SRB); type: cell-based, human; details: for inhibition at 10 µM / GI50: Homo sapiens, MCF7; for GI50: MCF-7, five-dose assay, 48 h
Procedure: Compounds were submitted to the Developmental Therapeutics Program (DTP) of the National Cancer Institute (NCI). The program uses a panel of 60 human tumor cell lines representing nine tissue types, including leukemia, non-small cell lung cancer (NSCLC), melanoma, colon cancer, ovarian cancer, CNS cancer, renal cancer, prostate cancer, and breast cancer, to screen for potential new anti-cancer agents. […] Primary screening of synthesized compounds was performed by testing a single high dose of 10 µM in the full NCI-60 panel. The percent growth of treated cells relative to the no-drug control and relative to the time zero number of cells was measured, and a mean graph was provided. The percentage inhibition was then calculated by subtracting the values obtained from 100.
All compounds were subjected to the NCI in vitro disease-oriented human cells screening panel assay. The human tumor cell lines of the cancer-screening panel are grown in RPMI 1640 medium containing 5% fetal bovine serum and 2 mM L-glutamine. For a typical screening experiment, cells are inoculated into 96-well microtiter plates in 100 μL at plating densities ranging from 5000 to 40,000 cells/well depending on the doubling time of individual cell lines. After cell inoculation, the microtiter plates are incubated at 37 °C, 5% CO2, 95% air, and 100% relative humidity for 24 h prior to the addition of experimental drugs. After 24 h, two plates of each cell line are fixed in situ with TCA to represent a measurement of the cell population for each cell line at the time of drug addition. Experimental drugs are solubilized in dimethyl sulfoxide at 400-fold the desired final maximum test concentration and stored frozen prior to use. At the time of drug addition, an aliquot of frozen concentrate is thawed and diluted to twice the desired final maximum test concentration with complete medium containing 50 μg/mL gentamicin. Additional four, 10-fold, or ½ log serial dilutions are made to provide a total of five drug concentrations plus control. Aliquots of 100 μL of these different drug dilutions are added to the appropriate microtiter wells already containing 100 μL of medium, resulting in the required final drug concentrations. Following drug addition, the plates are incubated for an additional 48 h at 37 °C, 5% CO2, 95% air, and 100% relative humidity. For adherent cells, the assay is terminated by the addition of cold TCA. Cells are fixed in situ by the gentle addition of 50 μL of cold 50% (w/v) TCA (final concentration, 10% TCA) and incubated for 60 min at 4 °C. The supernatant is discarded, and the plates are washed five times with tap water and air-dried. Sulforhodamine B (SRB) solution (100 μL) at 0.4% (w/v) in 1% acetic acid is added to each well, and plates are incubated for 10 min at room temperature. After staining, unbound dye is removed by washing five times with 1% acetic acid, and the plates are air-dried. Bound stain is subsequently solubilized with a 10 mM trizma base, and the absorbance is read on an automated plate reader at a wavelength of 515 nm. For suspension cells, the methodology is the same except that the assay is terminated by fixing settled cells at the bottom of the wells by gently adding 50 μL of 80% TCA (final concentration, 16% TCA). Compounds are screened at a dose of 10 µM, hits showing mean growth inhibition over 60 cell lines >50% are escalated for 5-dose screening assay. To construct a dose-response curve, about 60 cell lines of nine tumor subpanels were incubated with five concentrations (0.01–100 μM) for each compound. Three response parameters (GI50, TGI, and LC50) were calculated for each cell line.

[1] = system: Ishikawa endometrial adenocarcinoma cell line; assay: Alkaline phosphatase (AlkP) activity in Ishikawa cells; type: cell-based, human; details: for Relative alkaline phosphatase activity: 72 h, DMSO set to 1
Procedure: Alkaline phosphatase (AlkP) activity in these human endometrial cancer cells is markedly stimulated by estrogens.
Because of the potential SERM character of the compounds tested, their estrogenic effects were studied in an endometrial-derived cell culture model, the human endometrial adenocarcinoma cell line Ishikawa. […] All compounds were screened at two concentrations, 0.1 and 1 µM. Its agonistic effect was compared to the vehicle control DMSO (data shown in Supplementary Materials). […] The four compounds were studied in a concentration range of 1 nM to 10 µM.
Estrogens stimulate the activity of alkaline phosphatase (AlkP) in Ishikawa cells (human endometrial adenocarcinoma cells; kindly provided by Prof. Masato Nishida, National Hospital Organization, Kasumigaura Medical Center, Japan). This enzyme activity is estimated by using the chromogen substrate (4-nitrophenylphosphate). […] The procedure was modified by Littlefield et al., 1990 [42].
After 72 h incubation, cells were harvested, washed twice with PBS, and incubated at −80 °C for about 30 min to lyse the cells. After thawing, the lysates were resuspended in reaction buffer (274 mM mannitol, 100 mM CAPS, 4 mM MgCl2, pH 10.4) containing 4 mM p-nitrophenylphosphate (NPP). After incubation for 1 h in the dark, AlkP activity was assayed by using the hydrolysis of p-nitrophenylphosphate to p-nitrophenol at pH 10.4 and the spectrometric determination of the kinetic of the product formation at 405 nm. All compounds were tested in technical triplicates and biological triplicates. Statistical analysis was performed by analysis of variance (ANOVA) and Tukey’s post-hoc test with the significance level of p < 0.05.

Structure (SMILES)	inhibition at 10 µM (MCF-7 cells; 10 µM) [%]	Relative alkaline phosphatase activity ([1]; 1 µM)	also measured
COc1ccc(C(C)=C(c2ccc(Cl)cc2)c2ccc(OCCN3CCCCC3)cc2)cc1 [Compound 12, E/Z-1-(2-{4-[1-(4-Chloro-phenyl)-2-(4-methoxy-phenyl)-propenyl]-phenoxy}-ethyl)-piperidine]	79.7	–	GI50 (MCF-7 cells): 600 nM; Relative alkaline phosphatase activity ([1]; 1 nM): 0.95 ± 0.02; Relative alkaline phosphatase activity ([1]; 10 nM): 0.96 ± 0.01; Relative alkaline phosphatase activity ([1]; 100 nM): 1.14 ± 0.01; Relative alkaline phosphatase activity ([1]; 10 µM): 0.42 ± 0.13; effect on AlkP activity (in words) ([1]; 72 h treatment, 5-dose assay 1 nM to 10 µM): increase the AlkP activity in a dose-pendent manner
COc1ccc(C(C)=C(c2ccc(Cl)cc2)c2ccc(OCCN3CCCC3)cc2)cc1F [Compound 16, E/Z-1-(2-{4-[1-(4-Chlorophenyl)-2-(3-fluoro-4-methoxyphenyl)-propenyl]-phenoxy}-ethyl)-pyrrolidine]	90	0.98 ± 0.53	GI50 (MCF-7 cells): 2410 nM
COc1ccc(C(C)=C(c2ccc(Cl)cc2)c2ccc(OCCN3CCCCCC3)cc2)cc1 [Compound 14, E/Z-1-(2-{4-[1-(4-Chloro-phenyl)-2-(4-methoxy-phenyl)-propenyl]-phenoxy}-ethyl)-azepane]	63.5	6.58 ± 2.24	–
COc1ccc(C(C)=C(c2ccc(Cl)cc2)c2ccc(OCCCN(C)C)cc2)cc1 [Compound 10, E/Z-(3-{4-[1-(4-Chloro-phenyl)-2-(4-methoxy-phenyl)-propenyl]-phenoxy}-propyl)-dimethyl-amine]	63.1	2.55 ± 1.80	–
CC(=C(c1ccc(Cl)cc1)c1ccc(OCCN2CCCC2)cc1)c1ccccc1 [Compound 6, E/Z-1-(2-{4-[1-(4-Chloro-phenyl)-2-phenyl-propenyl]-phenoxy}-ethyl)-pyrrolidine]	66.2	2.55 ± 1.35	–
COc1ccc(C(C)=C(c2ccc(Cl)cc2)c2ccc(OCCN(C)C)cc2)cc1F [Compound 20, E/Z-(2-{4-[1-(4-Chlorophenyl)-2-(3-fluoro-4-methoxyphenyl)-propenyl]-phenoxy}-ethyl)-dimethyl-amine]	68.2	1.12 ± 0.46	–
COc1ccc(C(C)=C(c2ccc(O)cc2)c2ccc(Cl)cc2)cc1F [Compound 3, E/Z-4-[1-(4-Chlorophenyl)-2-(3-fluoro-4-methoxyphenyl)propenyl]-phenol]	–	1.13 ± 0.43	Growth Inhibition on MCF-7 (%) (MCF-7 cells; 10 µM): No inhibition
CC(=C(c1ccc(Cl)cc1)c1ccc(OCCN2CCOCC2)cc1)c1ccccc1 [Compound 8, E/Z-4-(2-{4-[1-(4-Chloro-phenyl)-2-phenyl-propenyl]-phenoxy}-ethyl)-morpholine]	30.9	1.16 ± 0.15	–
